# Like-named read-outs stand apart in the source and are kept apart here.
# Key:
# PEO1 cells = assay: Cisplatin dose-response, cell viability by MTT assay; format: cell-based, human; settings: 48 hours
# Experimental: (§1) A majority of HGSOC patients treated with platinum-based (i.e., carboplatin) chemotherapy develop chemoresistance. […] To test this hypothesis, CBX2 knockdown OVCAR4, PEO1, and OVCAR8 cells were grown in an adherent setting for 24 h and subsequently treated with increasing doses of cisplatin.
# (§2) The panels in FIG. 7A and FIG. 7B are as follows. Panel A: shControl (shCtrl), shCBX2 #1 and #2 OVCAR8 cells grown in adherent were dosed with cisplatin for 24 hours. Treated cells were utilized for a MTT assay to assess cell viability. Panel B: Same as A, but adherent PEO1 cells were dosed with cisplatin for 48 hours. Panel C: Same as A, but OVCAR8 cells in suspension were dosed with cisplatin for 24 hours. Panel D: Same as A, but PEO1 cells in suspension were dosed with cisplatin for 48 hours. IC50 values were calculated with Prism and are indicated.
# PEO1 and OVCAR4 cells were plated in 96-well plates in both adherent (4000 cells per well) and suspension (6000 cells per well) environments, as described above. These cells were treated over 24 h with increasing concentrations of Cisplatin (0.5-100 μM). 1640 RPMI media and media with 0.9% NaCl were used for control and vehicle control, respectively. Cell viability was assessed using the 3-(4,5-dimethylthiazol-2-yl)-5-(3-carboxymethoxyphenyl)-2-(4-sulfophenyl)-2H-tetrazolium (MTT) assay (Promega, Madison, WI). […]
# OVCAR4 cells [1] = assay: as above; format: cell-based, human; settings: for IC50: 24 h, MTT
# Experimental: as §1
# CBX2 knockdown OVCAR4, PEO1, and OVCAR8 cells were grown in suspension and dosed with cisplatin. […] Although not as robust as OVCAR4 cells, CBX2knockdown also sensitized OVCAR8 and PEO1 cells to cisplatin (FIG. 7B Panels C-D). […] In addition, we further confirmed that in OVCAR4, loss of CBX2 lead to increased cisplatin-induced apoptosis measured with Annexin V/PI (FIG. 6 Panel C).
# (§3) Panels of FIG. 6 are as follows. Panel A: OVCAR4 shControl, shCBX2 #1, and shCBX2 #2 in 96-well plates treated over 24 h with increasing dose of cisplatin (0.5-100 μM). Percent cell viability was measured using the MTT assay and the half maximal inhibitory concentration (IC50) calculated. Panel B: Similarly to (Panel A), OVCAR4 knockdown cell lines were grown in low adherent 96-well plates (forced suspension) and treated with increasing doses of cisplatin over 24 h and percent cell viability measured with MTT for calculation of IC50. Panel C: Annexin/V apoptosis assay of OVCAR4 cells grown in adherent setting with shControl, shCBX2 #1 or #2 treated with cisplatin (10 μM) compared to untreated control. Percent Annexin positive cells are shown. Statistical test=ANOVA. Error bars=S.E.M.
# PEO1 and OVCAR4 cells were plated in 96-well plates in both adherent (4000 cells per well) and suspension (6000 cells per well) environments, as described above. These cells were treated over 24 h with increasing concentrations of Cisplatin (0.5-100 μM). 1640 RPMI media and media with 0.9% NaCl were used for control and vehicle control, respectively. Cell viability was assessed using the 3-(4,5-dimethylthiazol-2-yl)-5-(3-carboxymethoxyphenyl)-2-(4-sulfophenyl)-2H-tetrazolium (MTT) assay (Promega, Madison, WI). Means of at least five wells are reported and experiments were independently repeated in triplicate. Representative dose-response curves are shown.
# OVCAR4 cells [2] = assay: Annexin V/PI apoptosis assay; format: cell-based, human; settings: OVCAR4 adherent, loss of CBX2 (shCBX2 #1 or #2) vs shControl, cisplatin 10 μM
# Experimental: as §3
# Following 72 h of growth in adherent and suspended states, OVCAR4 and PEO1 cells were harvested and washed in PBS. Alexa Fluor™ 488 Conjugated AnnexinV and Propidium Iodide (PI) (Thermo Fisher Scientific) staining were performed following manufacturer's protocol.
# OVCAR4 cells [3] = settings: cells allowed to recover 72 h following cisplatin treatment; read-out: OVCAR4 cisplatin IC50 reported by Haley et al.; cited from earlier work
# OVCAR8 cells = assay: Cisplatin dose-response, cell viability by MTT assay; format: cell-based, human; settings: 24 hours
# Experimental: as §2, with “A majority of HGSOC patients treated with platinum-based (i.e., carboplatin) chemotherapy develop chemoresistance. […] To test this hypothesis, CBX2 knockdown OVCAR4, PEO1, and OVCAR8 cells were grown in an adherent setting for 24 h and subsequently treated with increasing doses of cisplatin. […] The” for “The”
smiles,measurement,setting,value
N.N.[Cl][Pt][Cl] [cisplatin],"chemosensitivity to cisplatin, shCBX2 cell lines vs shControl cells","PEO1 cells; PEO1, adherent",significantly more chemosensitive
same,sensitivity to cisplatin after CBX2 knockdown,"PEO1 cells; PEO1, suspension",sensitized
same,"chemosensitivity to cisplatin, shCBX2 cell lines vs shControl cells","OVCAR4 cells [1]; OVCAR4, adherent",significantly more chemosensitive
same,increase in the cisplatin IC50 in suspension cells compared to the adherent cells,OVCAR4 cells [1]; OVCAR4 cells,4.47 fold
same,IC50,"OVCAR4 cells [1]; OVCAR4 control with intact CBX2, adherent",38.7 µM
same,IC50,"OVCAR4 cells [1]; OVCAR4 control with intact CBX2, suspension",170 µM
same,IC50,"OVCAR4 cells [1]; OVCAR4 shCBX2 #1 knockdown cells, adherent",12.7 µM
same,IC50,"OVCAR4 cells [1]; OVCAR4 shCBX2 #1 knockdown cells, suspension",7.19 µM
same,IC50,"OVCAR4 cells [1]; OVCAR4 shCBX2 #2 knockdown cells, adherent",15.4 µM
same,IC50,"OVCAR4 cells [1]; OVCAR4 shCBX2 #2 knockdown cells, suspension",18.1 µM
same,cisplatin-induced apoptosis measured with Annexin V/PI,OVCAR4 cells [2],increased
same,IC50,OVCAR4 cells [3],~6 µM
same,"chemosensitivity to cisplatin, shCBX2 cell lines vs shControl cells","OVCAR8 cells; OVCAR8, adherent",significantly more chemosensitive
same,sensitivity to cisplatin after CBX2 knockdown,"OVCAR8 cells; OVCAR8, suspension",sensitized
